Assays:
[1] = Experimental: FIG. 4 is a thermogravimetric analysis graph of the ASDA prepared in Example 1 of the present disclosure;
3. Thermal stability and application environment adaptability of the L-aspartic acid N,N-diacetic acid tetrasodium salt (ASDA) prepared by the preparation method provided in Example 1 were detected. […] The thermal stability of ASDA-Na4 powder was measured by thermogravimetric analysis (TGA) and differential scanning calorimetry (DSC).

[2] = Solubility in water of different pH values and in concentrated sodium hydroxide solution; format: physicochemical; conditions: ASDA of Example 1
From the text: It can also correspondingly reduce transportation and warehousing costs, and alleviate the problem of high transportation and warehousing costs.

[3] = Chelating ability for metal ions compared with other chelating agents; format: physicochemical; conditions: same condition as other chelating agents (FIG. 5)
[4] = Efficiency of removing calcium carbonate water scales; conditions: compared with other amino polymeric chelating agents (FIG. 6)
From the text: 5. The ASDA can also be used for preventing water scale and precipitation and removing water scale.

[5] = Biodegradability of ASDA in sewage according to OECD 301B standard; conditions: 28 days, third-party detection, ASDA of Example 1
Experimental: FIG. 1 is a graph of biodegradability detection results of ASDA prepared in Example 1 of the present disclosure tested in a stable sewage environment;
1. […] The detection was carried out by a third-party detection mechanism.

Row | SMILES | thermal stability (thermally more stable than ASDA) [1] [°C] | moisture lost ([1]; ASDA solid, all moisture lost at about 250° C., TGA) | temperature above which rapid decomposition begins ([1]; ASDA-Na4 powder, TGA/DSC) | solubility under a strong alkali condition ([2]; concentrated sodium hydroxide solution (FIG. 3)) | solubility in low pH ([2]; water, low pH (FIG. 2)) | comprehensive performance in chelating metal ions [3] | efficiency of removing CaCO3 scales [4] | 28-day biodegradability [5] [%]
1 | O=C(O)CN(CCN(CC(=O)O)CC(=O)O)CC(=O)O [EDTA, ethylenediaminetetraacetic acid, reference compound] | > 150 |  |  |  |  |  |  | 
2 | O=C([O-])C[C@@H](C(=O)[O-])N(CC(=O)[O-])CC(=O)[O-].[Na+].[Na+].[Na+].[Na+] [ASDA, L-aspartic acid N,N-diacetic acid tetrasodium salt] |  | about 4% | above 380 °C | high solubility | high solubility | excellent | the best biodegradable chelate for removing CaCO3 scales | ≥ 60
3 | O=C(O)CN(CC(=O)O)CC(=O)O [NTA, nitrilotriacetic acid, reference compound] | > 150 |  |  |  |  |  |  | 

Reference: patent US20240343677A1, “L-ASPARTIC ACID N, N-DIACETIC ACID TETRASODIUM SALT AND PREPARATION METHOD THEREFOR” (HEFEI ALL-PLUS ENVIRONMENTAL TECNOLOGY CO., LTD., priority 2021, published 2024)
